From US20220135663A1, “Method of treatment of Chronic Low Back Pain” (Pfizer Inc., priority 2019, published 2022)

Key:
[1] = system: subjects with chronic low back pain (CLBP); assay: Study 1063, Phase 3 in Japan: efficacy (LBPI, RMDQ) in chronic low back pain; type: in vivo, human; details: 100 mg BID
Experimental: Patients received a total of seven SC injections, separated by 8 weeks (tanezumab or
Treatment groups were as follows: 1. […] Placebo for tanezumab SC and celecoxib BID.
The Intent-to-Treat (ITT) analysis set included all patients who were randomized and received at least one dose of SC study medication (either tanezumab or placebo). This analysis set was primary for all efficacy endpoints, which were analyzed according to randomization assignment, and was labeled as the ‘ITT population’.

[2] = system: subjects with chronic low back pain (CLBP); assay: Study 1063: adverse events and adjudicated joint safety
Experimental: This second study (termed “Study 1063) was a randomized, double-blind, active-controlled, multicenter, parallel-group Phase 3 study in Japan to evaluate the safety and efficacy of tanezumab when administered by SC injection for up to 56 weeks in subjects with chronic low back pain (CLBP). […] Patients were also required to be experiencing some benefit from their current stable dose regimen of oral therapy of NSAID (celecoxib 200 mg/day [100 mg BID], loxoprofen 120 to 180 mg/day or meloxicam 5 to 15 mg/day) treatment, but still required additional pain relief at screening. […] Patients with a diagnosis of osteoarthritis of the knee or hip as defined by the American College of Rheumatology combined clinical and radiographic criteria or who had Kellgren Lawrence Grade ≥2 radiographic evidence of hip osteoarthritis or Kellgren Lawrence Grade ≤3 radiographic evidence of knee osteoarthritis were excluded.
Treatment groups were as follows: 1. Tanezumab 5 mg SC and placebo for celecoxib BID; 2. Tanezumab 10 mg SC and placebo for celecoxib BID; 3. Placebo for tanezumab SC and celecoxib BID.
This study was designed with a total (post-randomization) duration of 80 weeks and consisted of three periods: (1) a Screening period (up to a maximum of 37 days), (2) a Double-blind Treatment period (56 weeks), and (3) a Safety Follow-up (24 weeks) Period (FIG. 8). The Screening Period included a Washout Period (lasting 2-32 days) if required, and an Initial Pain Assessment Period (IPAP) (5 days prior to Randomization/Baseline; minimum 4 days).
The Safety analysis set included all patients who received at least one dose of SC study treatment. This analysis set was primary for all safety endpoints, which were analyzed according to treatment received, and was labeled as the ‘Safety population’. In this study, the ITT and Safety analysis sets were identical.

low back pain = details: 500 mg BID; prior study; cited from earlier work
[3] = 100 mg BID, 56-week treatment period

Cc1ccc(-c2cc(C(F)(F)F)nn2-c2ccc(S(N)(=O)=O)cc2)cc1 [celecoxib]
Proportion of Patients with ≥50% Improvement in LBPI at Week 16 (Mixed BOCF/LOCF) [1]: (32.6%)
Change from Baseline to Week 16 in LBPI (Multiple Imputation), LS Mean ([1]; ITT): −2.28
Change from Baseline to Week 16 in RMDQ (Multiple Imputation), LS Mean ([1]; ITT): −3.84
frequency of adverse events of potential sympathetic dysfunction ([2]; 100 mg BID): 7.6%
incidence of composite joint safety endpoint ([2]; 100 mg BID): 0%
observation-time adjusted rate of composite joint safety endpoint ([2]; 100 mg BID): 0 event/1000 patient-years
patients who met criteria for adjudication of a joint safety event, number ([2]; 100 mg BID): 1 patient
incidence of serious adverse events [2, 3]: 2.2%
overall incidence of adverse events [2, 3]: 67.4%
Composite Joint Safety Endpoint, n (%) ([2]; 100 mg BID, during the study): 0 n (%)
Pathological Fracture, n (%) ([2]; 100 mg BID, during the study): 0 n (%)
Patients analyzed by the Adjudication Committee, n (%) ([2]; 100 mg BID, during the study): 1 (1.1%) n (%)
Patients with Only Normal Progression of OA, n (%) ([2]; 100 mg BID, during the study): 0 n (%)
Patients with Other Joint Outcome, n (%) ([2]; 100 mg BID, during the study): 1 (1.1%) n (%)
Primary Osteonecrosis, n (%) ([2]; 100 mg BID, during the study): 0 n (%)
RPOA type 1, n (%) ([2]; 100 mg BID, during the study): 0 n (%)
RPOA type 2, n (%) ([2]; 100 mg BID, during the study): 0 n (%)
RPOA, n (%) ([2]; 100 mg BID, during the study): 0 n (%)
Subchondral Insufficiency Fracture, n (%) ([2]; 100 mg BID, during the study): 0 n (%)
Arthralgia, number (%) of patients ([2]; 100 mg BID, treatment period): 6 (6.5) n (%)
Back pain, number (%) of patients ([2]; 100 mg BID, treatment period): 4 (4.3) n (%)
Contusion, number (%) of patients ([2]; 100 mg BID, treatment period): 2 (2.2) n (%)
Diarrhoea, number (%) of patients ([2]; 100 mg BID, treatment period): 3 (3.3) n (%)
Discontinued from study due to Adverse Event, number (%) of patients ([2]; 100 mg BID, treatment period): 0 n (%)
Discontinued study drug due to Adverse Event and continued study, number (%) of patients ([2]; 100 mg BID, treatment period): 4 (4.3) n (%)
Discontinued study drug due to Adverse Event, number (%) of patients ([2]; 100 mg BID, treatment period): 4 (4.3) n (%)
Fall, number (%) of patients ([2]; 100 mg BID, treatment period): 3 (3.3) n (%)
Gastroenteritis, number (%) of patients ([2]; 100 mg BID, treatment period): 3 (3.3) n (%)
Headache, number (%) of patients ([2]; 100 mg BID, treatment period): 2 (2.2) n (%)
Hypertension, number (%) of patients ([2]; 100 mg BID, treatment period): 3 (3.3) n (%)
Hypoaesthesia, number (%) of patients ([2]; 100 mg BID, treatment period): 3 (3.3) n (%)
Intervertebral disc protrusion, number (%) of patients ([2]; 100 mg BID, treatment period): 3 (3.3) n (%)
Musculoskeletal pain, number (%) of patients ([2]; 100 mg BID, treatment period): 3 (3.3) n (%)
Myalgia, number (%) of patients ([2]; 100 mg BID, treatment period): 1 (1.1) n (%)
Nasopharyngitis, number (%) of patients ([2]; 100 mg BID, treatment period): 6 (6.5) n (%)
Pain in extremity, number (%) of patients ([2]; 100 mg BID, treatment period): 3 (3.3) n (%)
Pneumonia, number (%) of patients ([2]; 100 mg BID, treatment period): 1 (1.1) n (%)
Pyrexia, number (%) of patients ([2]; 100 mg BID, treatment period): 4 (4.3) n (%)
Serious Adverse Event, number (%) of patients ([2]; 100 mg BID, treatment period): 2 (2.2) n (%)
Severe Adverse Event, number (%) of patients ([2]; 100 mg BID, treatment period): 1 (1.1) n (%)
frequency of adverse events of abnormal peripheral sensation ([2]; 100 mg BID, treatment period): 4.3%
incidence of discontinuations from treatment due to an adverse event ([2]; 100 mg BID, treatment period): 4.3%
Adverse Event, number (%) of patients ([2]; 100 mg BID, treatment period, all causalities): 62 (67.4) n (%)
patients who met criteria for adjudication of joint safety outcome ([2]; celecoxib-treated patients, 80-week observation period): 1.1%

COc1ccc2cc([C@H](C)C(=O)O)ccc2c1 [naproxen]
LBPI endpoints relative to placebo (low back pain): significant differences relative to placebo
RMDQ endpoint relative to placebo (low back pain): not the RMDQ endpoint
